The text below walks through data of patent US11147875B2, “Compositions, combinations and related methods for photoimmunotherapy” (priority 2015, dated 2021).

The conditions of data set [1]: cited from earlier work.
The next data set relates to A431 cells. The data set can be described thus: EGF-IRDye 700DX light-dependent killing. Format: cell-based. The settings on record: for light-dependent killing: 24 hours. The protocol:
Photo-activated EGF-IR700 cell killing was assessed in A431 cells. A431 cells were seeded at 5000 cells per well in 96 well white clear bottom dishes one day prior to the experiment. The following day, the A431 cells were washed three times with EMEM supplemented with 1% Penicillin/Streptomycin (serum free media). The A431 cells were then washed one time with serum free media, then incubated with serum free media containing 1 μg/mL of EGF-IRDye 700DX for one hour at 4° C. or serum free media only. […] The cells were then washed one time with serum free media.
To induce IR700-dependent killing, the cells were then illuminated with a 690 nm laser with 32 J/cm^2 of light or protected from light (“no light”). Cell death was evaluated as described in Example 6 using CellTox Green. The normalized percentage of dead cells was calculated by subtracting all wells by the percentage of dead cells from the no light serum free media only control, dividing by EGF-IRDye 700DX at 32 J/cm^2 minus the no light serum free media only control, and multiplied 100.
The effect of EGF-IRDye 700DX pre-exposure to white light versus green light on photo-activated cell killing was also evaluated in A431 cells. EGF-IRDye 700DX was pre-exposed to different types of light and the effect of light treatment on photo-activated killing activity was evaluated. Five microliters of EGF-IRDye 700DX conjugate (DAR 2) was added per clear HPLC vial at a EGF-IRDye 700DX concentration of 1.14 mg/mL. The following conditions were tested: (1) the antibody-IRDye 700DX conjugate stored at 4° C. protected from light (“4° C.”, used as the control); (2) antibody-IRDye 700DX conjugate placed in a clear glass HPLC tube under a Halogen lamp at 2500 lux for 24 hrs (“white light”); (3) antibody-IRDye 700DX conjugate placed in a clear glass HPLC tube wrapped in aluminum foil to protect from light exposure under Halogen lamp at 2500 lux for 24 hrs (“no light”), used as a control for thermal heating effects on the formation of aggregates); and (4) antibody-IRDye 700DX conjugate placed in a clear glass HPLC tube and exposed to green LED lamp at 2500 lux for 24 hrs (“green light”).
To assess cell killing activity, A431 cells were washed two times with serum free media, and incubated in serum free media alone for one hour at 4° C. The cells were then washed one time with serum free media and incubated with serum free media alone or serum free media containing 1 μg/mL of EGF-IRDye 700DX (“no light”), serum free media containing 1 μg/mL of EGF-IRDye 700DX pre-exposed to white light (“2500 Lux White light”), or serum free media containing 1 μg/mL EGF-IRDye 700DX pre-exposed to green light for one hour at 4° C. (“2500 Lux Green light”). The cells were then washed one time with serum free media.
To induce cell killing, the cells were either protected from light (light dose 0 J/cm^2) or were illuminated with a 690 nm laser with different light dosimetries (8 J/cm^2, 32 J/cm^2 or 64 J/cm^2).

In data set [2] the test system is BxPC3 pancreatic cancer cells. The data set can be described thus: In vitro PIT with panitumumab conjugates. It counts as cell-based. The settings on record: 10 μg/mL; for killing: 8 J/cm^2 at 690 nm. On the procedure: The two conjugates were tested for efficiency in killing cells in an in vitro PIT assay using the pancreatic cancer line BxPC3. BxPC3 were seeded into 96-well white-wall plates (4,000 cells/well) the day before the experiment. Antibody conjugates were added to cells at a concentration of 10 μg/mL and were incubated for 2 hours at 37° C. Light of 690 nm was applied by a diode at a constant power output of 50 mW/cm^2. The illumination time was modulated to achieve the fluences 4 J/cm^2, 8 J/cm^2 or 16 J/cm^2. As a control, a group of cells was not irradiated with light (0 J/cm^2). To monitor the progression of cell death after light treatment, the conjugate containing medium was replaced by fresh medium containing CellTox Green (Promega), a dye that reports cell death based on compromised cell membrane integrity. Time dependent increase in cell death was observed over 24 hours.

Another data set deals with human iDCs. The data set can be described thus: DC activation after priming with PIT-killed FaDu cells and Poly I:C treatment. It counts as cell-based. The settings on record: 1 μg/mL overnight, DCs primed with FaDu cells PIT-killed with Cetuximab IRDye 700DX, vs no light controls. On the procedure: FaDu cells grown in complete EMEM media were plated in 100 μL total volume per well in a 96 well tissue culture plate for adherence overnight. […] PIT cell killing was induced by illumination with a 690 nm laser light at a fluence of 12 J/cm^2. The controls represented wells corresponding to the groups not treated with light.
For co-culture, human iDCs (Astarte Biologics) from a healthy donor were directly added into the wells with PIT killed tumor cells and into control wells (non-PIT treated tumor cells). The co-cultures were then incubated for 48 hours at 37° C. in the CO2 incubator. The harvested DCs were then subjected to poly I:C treatment (1 μg/mL) for overnight. The cells were then detached using a non-enzymatic detachment solution.
The harvested cells from various treatment conditions were incubated with live/dead discrimination dye Zombie Green (BioLegend, 1:500) for 20 min at room temperature followed by washing with stain buffer. Cells were resuspended in stain buffer and human Fc blocking reagent (BD) was then added and cells were incubated for 20 min at room temperature. […]
Appropriate gating was performed while analyzing the data to exclude cell debris, and the data was analyzed with gating performed on live events. The results described below are based on median fluorescence intensity (MFI) data from each group which is plotted as fold increase over the no light controls.

For data set [3] the following is noted: in vivo, 400 mg/m2; cited from earlier work.

Where two headings read alike, the source gives them in different places.

Consider `Oc1cccc(-c2c3nc(c(-c4cccc(O)c4)c4ccc([nH]4)c(-c4cccc(O)c4)c4nc(c(-c5cccc(O)c5)c5ccc2[nH]5)CC4)C=C3)c1` [Foscan®, meta-tetrahydroxyphenylchlorin], for which, in data set [1] (652 nm), the extinction coefficient was 22000 M⁻¹ cm⁻¹.

Regarding `C=Cc1c(C)c2cc3nc(c(CC(=O)N[C@@H](CC(=O)[O-])C(=O)[O-])c4[nH]c(cc5nc(cc1[nH]2)C(C)=C5CC)c(C)c4C(=O)[O-])[C@@H](CCC(=O)[O-])[C@@H]3C.[Na+].[Na+].[Na+].[Na+]` [NPe6/Laserphyrin®, mono-L-aspartylchlorin e6], the extinction coefficient in data set [1] is 40000 M⁻¹ cm⁻¹.

“EGF-IRDye 700DX: human recombinant epidermal growth factor (EGF) conjugated to IRDye 700DX (NSDSECPLSHDGYCLHDGVCMYIEALDKYACNCVVGYIGERCQYRDLKWWELR; Epidermal growth factor IRDye 700DX dye; UniProt P01133 971-1023, looked up)”: the cell killing result is given as “light-dependent killing” in the data set with A431 cells (1 μg/mL, 32 J/cm^2 vs no light) and “blocked light-dependent cell killing” in the data set on A431 cells (cells pre-exposed to 100 μg/mL unconjugated cetuximab). Moreover, the light-dependent killing entry in the data set with A431 cells (conjugate pre-exposed to green light, 2500 lux) is given as “exhibited light-dependent killing activity comparable”; in the data set with A431 cells (conjugate pre-exposed to white light, 2500 lux) it was “no longer exhibited light-dependent killing activity”; in the data set on A431 cells (conjugate protected from light under halogen lamp) it was “exhibited light-dependent killing”.

With “Pan-IRDye 700DX-Alexa-488: panitumunab conjugated both to IRDye 700DX and Alexa Fluor 488”, the cell killing entry in data set [2] (4 J/cm^2 at 690 nm) is reported as “only marginally effective”; in data set [2] (16 J/cm^2 at 690 nm) it was “near complete cell killing”. For the same molecule, the killing in data set [2] is listed as 73%.

“Pan-IRDye 700DX: anti-human EGFR antibody drug panitumumab conjugated only with IRDye 700DX”: the cell killing result is listed as “only marginally effective” in data set [2] (4 J/cm^2 at 690 nm) and “near complete cell killing” in data set [2] (16 J/cm^2 at 690 nm). Also, the killing in data set [2] is recorded as 74%.

With Photofrin®, in data set [1], the extinction coefficient is 1200 M⁻¹ cm⁻¹.

For Poly I:C, the “CD80 and CD86 expression levels” value in the data set with human iDCs was “increased CD80 and CD86 expression levels”.

In the case of “cetuximab: anti-EGFR antibody cetuximab (Erbitux), not conjugated”, in data set [3], the “AUC0-∞” value was 24,740 μg/mL*h.
